Experimental data published in patent US20220265629A1, “TREATMENT OF SYSTOLIC DYSFUNCTION AND HEART FAILURE WITH REDUCED EJECTION FRACTION WITH THE COMPOUND (R)-4-(1-((3-(DIFLUOROMETHYL)-1-METHYL-1H-PYRAZOL-4-YL)SULFONYL)-1-FLUOROETHYL)-N-(ISOXAZOL-3-YL)PIPERIDINE-1-CARBOXAMIDE” (MyoKardia, Inc., priority 2019, published 2022).
Read-outs that look alike come from different tables or passages of the source.

Assay: HFrEF study Part 1 (SAD Cohorts 1 and 2): plasma pharmacokinetics
Format: in vivo, human
Settings: for Cmax / Tmax / AUC(0-t) / AUC(0-inf) / half-life: human, plasma, oral; for AUC(0-t): read-out: AUC0-24; for Plasma concentration, Mean / Plasma concentration, Median: pooled SAD Cohorts 1 and 2
Source text: Part 1 was a randomized, crossover, DB, placebo-controlled, two-cohort, sequential ascending (oral) single-close study in ambulatory patients with heart failure. All patients received placebo and 2 or 3 active doses of Compound I. Each patient underwent sequential, single-close treatment events separated by no fewer than 5 days and no more than 14 days. Patients in Cohort 1 may also return for a fourth dosing period (open label) after the SRC reviews available data and recommends the close. Patients enrolled prior to the implementation of Amendment 1 may be offered the opportunity to return for the open-label period. Patients in Cohort 2 participated in 2 to 4 dosing periods, based on SRC decision. Patients were randomized to one of the different dosing sequences outlined in FIG. 5A. Multiple patients could be closed at the same time or during the same week depending on administrative issues, i.e., capacity and scheduling.
For each dosing period, patients were admitted to the clinical site on Day −1. Patients were assessed for absence of exclusion criteria (e.g., new lab abnormalities and/or conditions that indicate the patient is clinically unstable). They received Compound I or placebo in the morning of Day 1 followed by serial PK and PD assessments, as well as serial safety assessments. Patients were discharged on Day 3 (i.e., ˜48 hours following Day 1 dosing). An additional outpatient plasma PK sample was taken on the morning of Day 4 at 72 hours postclose.
Study medication consisted of Compound I 5 mg tablets, 25 mg tablets, 100 mg tablets, or matching placebo tablets. In Part 1 (SAD), Compound I or placebo was administered after an overnight fast (at least 6 hours), while in Part 2 (MAD), Compound I was administered after a 2 hour fast (Cohort A) or with food (Cohorts B, C, and D). The close was ingested with a minimum of 240 mL of water, but more water was ingested as needed. The entire close was administered over a period of up to 15 minutes. The time of close used to determine future assessments was the time the last tablet was taken. In the cohorts for Part 2 (MAD), a BID regimen was used.
In Part 1 (SAD), patients fasted overnight (approximately 6 hours) through 4 hours postclose. With the exception of the water consumed with the close, water could be ingested until approximately 1 hour prior to dosing and approximately 1 hour after dosing. If closes were split, subjects fasted 6 hours prior to the first half-close. A light, low-fat snack could be consumed 2 hours after the first half-close and a fast continued through 2 hours after the second half-close.
Eight patients with stable heart failure were enrolled and randomized to receive Compound I or placebo at a dose of 175, 350, 525, 450 (split close), or 550 mg (split close) in a crossover study design with four periods (A-D). All patients had heart failure with a nonischemic etiology and a mean Baseline ejection fraction of 43%. All eight subjects received placebo, 175 mg, and 350 mg (in random sequence) during Periods A to C. Six subjects elected to continue into a fourth open-label Period D, and closes received included: 350 mg (n=1), 525 mg (n=2), 450 mg (divided into 2 aliquots; n=1) and 550 mg (divided into 2 aliquots, n=2). The single doses were administered to patients under fasted conditions. The split closes were given four hours apart with patients fasting six hours prior to the first half-close and 2 hours after the second half-close, with a light snack allowed 2 hours after the first half-close. Subsequently, patients underwent extended observation, followed by a washout period. This process was repeated until each patient had received at least three closes (Compound I or placebo).
Four subjects with stable heart failure were enrolled and randomized to receive Compound I or placebo at a dose of 400 mg (split close) or 500 mg (split close) over three periods (A-C). […]

[1] = 175 mg, SAD Cohort 1, 175 mg (n = 8)
[2] = 350 mg, SAD Cohort 1, 350 mg (n = 8)
[3] = 350 mg, SAD Cohort 1, 4th dose 350 mg (n = 1)
[4] = 400 mg, SAD Cohort 2, 400 mg split dose (n = 4)
[5] = 450 mg, SAD Cohort 1, Split dose 450 mg (n = 1)
[6] = 500 mg, SAD Cohort 2, 500 mg split dose (n = 4)
[7] = 525 mg, SAD Cohort 1, 525 mg (n = 2)
[8] = 550 mg, SAD Cohort 1, Split dose 550 mg (n = 2)

In the case of `Cn1cc(S(=O)(=O)[C@@](C)(F)C2CCN(C(=O)Nc3ccon3)CC2)c(C(F)F)n1` [Compound I, (R)-4-(1-((3-(difluoromethyl)-1-methyl-1H-pyrazol-4-yl)sulfonyl)-1-fluoroethyl)-N-(isoxazol-3-yl)piperidine-1-carboxamide], the “AUC0-∞” value (SAD Cohort 1, 175 mg (n = 8)) is reported as 53,800 h × ng/mL, the “AUC0-∞” value (SAD Cohort 1, 350 mg (n = 8)) is reported as 103,000 h × ng/mL and the “AUC0-∞” value (SAD Cohort 1, 525 mg (n = 2)) is reported as 127,000 h × ng/mL. For the same molecule, the Cmax (175 mg, 175 mg single dose, read-out: Cmax, mean (SD)) was 1.51 µg/mL, the Tmax [1] was 4.93 h and the AUC(0-t) [1] was 27 µg·h/mL. The Cmax (175 mg, SAD Cohort 1, 175 mg (n = 8), read-out: Cmax) was 1.51 µg/mL, the Cmax (350 mg, 350 mg single dose, read-out: Cmax, mean (SD)) was 2.76 µg/mL and the Tmax [2] was 6.15 h. For the same molecule, the AUC(0-t) [2] was 50.5 µg·h/mL, the Cmax (350 mg, SAD Cohort 1, 350 mg (n = 8), read-out: Cmax) was 2.76 µg/mL and the Tmax [3] was 4.05 h. The AUC(0-t) [3] was 70.1 µg·h/mL, the Cmax (350 mg, SAD Cohort 1, 4th dose 350 mg (n = 1), read-out: Cmax) was 3.59 µg/mL and the Tmax [4] was 9 h. For the same molecule, the AUC(0-t) [4] was 162 µg·h/mL, the Cmax (400 mg, SAD Cohort 2, 400 mg split dose (n = 4), read-out: Cmax) was 5.46 µg/mL and the Tmax [5] was 12 h. It also gave an AUC(0-t) [5] of 79.2 µg·h/mL, a Cmax (450 mg, SAD Cohort 1, Split dose 450 mg (n = 1), read-out: Cmax) of 4.42 µg/mL and a Tmax [6] of 8.5 h. It also gave an AUC(0-t) [6] of 191 µg·h/mL, a Cmax (500 mg, SAD Cohort 2, 500 mg split dose (n = 4), read-out: Cmax) of 5.88 µg/mL and a Cmax (525 mg, 525 mg single dose, read-out: Cmax, mean (SD)) of 2.72 µg/mL. The Tmax [7] was 5.74 h, the AUC(0-t) [7] was 54 µg·h/mL and the Cmax (525 mg, SAD Cohort 1, 525 mg (n = 2), read-out: Cmax) was 2.72 µg/mL. The Tmax [8] was 8.93 h, the AUC(0-t) [8] was 97.9 µg·h/mL and the Cmax (550 mg, SAD Cohort 1, Split dose 550 mg (n = 2), read-out: Cmax) was 5.28 µg/mL. For the same molecule, the AUC(0-inf) (175 mg single dose, read-out: AUC0-∞, mean (SD)) was 53.8 µg·h/mL, the AUC(0-inf) (350 mg single dose, read-out: AUC0-∞, mean (SD)) was 103 µg·h/mL and the AUC(0-inf) (525 mg single dose, read-out: AUC0-∞, mean (SD)) was 127 µg·h/mL. It also gave a half-life (HFrEF patients (Cohort 1), read-out: half-life) of 20 to 25 h, a half-life (SAD Cohort 1, 175 mg (n = 8), read-out: t½ (converted)) of 22 h and a half-life (SAD Cohort 1, 350 mg (n = 8), read-out: t½ (converted)) of 21 h. The half-life (SAD Cohort 1, 525 mg (n = 2), read-out: t½ (converted)) was 24.7 h, the AUC(0-inf) (SAD Cohort 1, Split dose 450 mg (n = 1), read-out: AUC0-∞) was 235 µg·h/mL and the half-life (SAD Cohort 1, Split dose 450 mg (n = 1), read-out: t½ (converted)) was 30.6 h. It also gave an AUC(0-inf) (SAD Cohort 1, Split dose 550 mg (n = 2), read-out: AUC0-∞) of 213 µg·h/mL, a half-life (SAD Cohort 1, Split dose 550 mg (n = 2), read-out: t½ (converted)) of 21.5 h and an AUC(0-inf) (SAD Cohort 2, 400 mg split dose (n = 4), read-out: AUC0-∞) of 192 µg·h/mL. It also gave a half-life (SAD Cohort 2, 400 mg split dose (n = 4), read-out: t½ (converted)) of 24.1 h, an AUC(0-inf) (SAD Cohort 2, 500 mg split dose (n = 4), read-out: AUC0-∞) of 231 µg·h/mL and a half-life (SAD Cohort 2, 500 mg split dose (n = 4), read-out: t½ (converted)) of 24 h. The “Plasma concentration, Mean” value (group <2000 ng/mL) was 1.39 µg/mL, the “Plasma concentration, Median” value (group <2000 ng/mL) was 1.307 µg/mL and the “Plasma concentration, Mean” value (group ≥2000 ng/mL) was 3.823 µg/mL. For the same molecule, the “Plasma concentration, Median” value (group ≥2000 ng/mL) was 3.795 µg/mL.
